*1 amine or outer side, *2 acyl side, *3 side chain or, on linkers, in order; H or OH if unused. Where a SMILES comes first, the peptide text is derived from it. [ ]: non-standard residue; d: D form. The star is where a group is joined. X8 = N=C(N)NCCC[C@@H](C(=O)[*:2])N(CC1CCN([*:3])CC1)[*:1]; Butyryl(4-indol-3-yl) = O=C(CCCc1c[nH]c2ccccc12)*; Acetyl(2-naphthyloxy) = O=C(COc1ccc2ccccc2c1)*; Acetyl(2-naphthyl) = O=C(Cc1ccc2ccccc2c1)*; X7 = O=C(CN1CCC(C(=O)*)CC1)c1ccc2ccccc2c1; 2Naphthoyl = O=C(c1ccc2ccccc2c1)*; NMeI = CC[C@H](C)[C@H](NC)C(=O)O; X1 = O=C(Cc1ccc(N[*:1])cc1)[*:2]; tBuAla = CC(C)(C)C[C@H](N)C(=O)O; Cit = NC(=O)NCCC[C@H](N)C(=O)O; Phg = N[C@H](C(=O)O)c1ccccc1; Tle = CC(C)(C)[C@H](N)C(=O)O; 4Abz = Nc1ccc(C(=O)O)cc1; Orn = NCCC[C@H](N)C(=O)O; Aoc = NCCCCCCCC(=O)O; Inp = O=C(O)C1CCNCC1; GABA = NCCCC(=O)O; X3 = CCC(C)CN*
Molecular target: T1, specific ANP receptor sites on BASM or BAE cells (Bos taurus, UniProt P10730)
T1 construct: specific receptor sites on BASM or BAE cells; endogenous in cells; host or cells: cultured BASM and BAE cells
T1 sequence (P10730 42-537): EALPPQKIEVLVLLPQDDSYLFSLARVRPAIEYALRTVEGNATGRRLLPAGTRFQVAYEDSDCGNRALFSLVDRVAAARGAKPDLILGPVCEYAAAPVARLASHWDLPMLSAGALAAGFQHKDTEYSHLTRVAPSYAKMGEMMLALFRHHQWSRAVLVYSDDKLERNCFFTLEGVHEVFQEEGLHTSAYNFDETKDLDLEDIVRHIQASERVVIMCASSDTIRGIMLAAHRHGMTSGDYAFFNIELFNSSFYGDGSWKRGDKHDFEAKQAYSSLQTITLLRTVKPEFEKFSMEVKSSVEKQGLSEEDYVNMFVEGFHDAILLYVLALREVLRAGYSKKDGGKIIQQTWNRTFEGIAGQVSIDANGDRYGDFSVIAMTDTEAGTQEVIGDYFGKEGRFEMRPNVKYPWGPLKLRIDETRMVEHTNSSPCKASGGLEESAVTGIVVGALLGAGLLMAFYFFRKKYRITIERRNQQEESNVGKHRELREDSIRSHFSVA
Assay: Competitive displacement receptor binding of (125I)-rANP(126-150) on cultured cells
Parameters: species or system bovine
Conditions: for Ki(app): concentration of unlabeled peptide displacing 50% of maximal binding of 0.5 nM (125I)-rANP(126-150), BASM or BAE cells
Source text: Analogous "competitive displacement" receptor binding assays are considered commonplace in the art for examining specific ligand-receptor interactions.
Assuming these ANP analogs act at one or more ANP receptor sites, then increased receptor affinity should reflect increased biological potency.

Ki(app)	receptor binding / activity as judged by Ki, in words	SMILES
106.4 nM	–	CC[C@H](C)[C@H](NC(=O)[C@H](CCCNC(=N)N)NC(=O)CNC(=O)CNC(=O)Cc1ccc2ccccc2c1)C(=O)N[C@@H](CC(=O)O)C(=O)N[C@@H](CCCNC(=N)N)C(=O)N[C@H](CC(C)C)C(N)=O [AP536, (2-NA)--G--G--R--I--D--R--L^ --NH2)] ({Acetyl(2-naphthyl)}-GGRIDR[dL]-NH2)
> 160 nM	–	CC[C@H](C)[C@H](NC(=O)[C@H](CCCNC(=N)N)NC(=O)CNC(=O)CNC(=O)Cc1ccc2ccccc2c1)C(=O)N[C@@H](CC(=O)O)C(=O)N[C@@H](CCCNC(=N)N)C(=O)N[C@H](Cc1ccccc1)C(N)=O [AP537, (2-NA)--G--G--R--I--D--R--F^ --NH2)] ({Acetyl(2-naphthyl)}-GGRIDR[dF]-NH2)
12.0 nM	–	CC[C@H](C)[C@H](NC(=O)[C@H](CCCNC(=N)N)NC(=O)[C@H](CC(=O)O)NC(=O)[C@H](CC(C)(C)C)NC(=O)[C@H](CCCNC(=N)N)NC(=O)CNC(=O)CNC(=O)Cc1ccc2ccccc2c1)C(N)=O [AP590, (2-NA)--G--G--R--tBuA--D--R--I--NH2] ({Acetyl(2-naphthyl)}-GGR[tBuAla]DRI-NH2)
14.0 nM	–	CC[C@H](C)[C@H](NC(=O)[C@H](CCCNC(=N)N)NC(=O)[C@H](CC(=O)O)NC(=O)[C@@H](NC(=O)[C@H](CCCNC(=N)N)NC(=O)CNC(=O)CNC(=O)Cc1ccc2ccccc2c1)C(C)(C)C)C(N)=O [AP591, (2-NA)--G--G--R--tBuG--D--R--I--NH2] ({Acetyl(2-naphthyl)}-GGR[Tle]DRI-NH2)
25.0 nM	–	CC[C@H](C)[C@H](NC(=O)[C@H](CCCN)NC(=O)[C@H](CC(=O)O)NC(=O)[C@@H](NC(=O)[C@H](CCCNC(=N)N)NC(=O)CNC(=O)CNC(=O)Cc1ccc2ccccc2c1)[C@@H](C)CC)C(N)=O [AP592, (2-NA)--G--G--R--I--D--Orn--I--NH2] ({Acetyl(2-naphthyl)}-GGRID[Orn]I-NH2)
55.0 nM	–	CC[C@H](C)[C@H](NC(=O)[C@H](CCCNC(N)=O)NC(=O)[C@H](CC(=O)O)NC(=O)[C@@H](NC(=O)[C@H](CCCNC(=N)N)NC(=O)CNC(=O)CNC(=O)Cc1ccc2ccccc2c1)[C@@H](C)CC)C(N)=O [AP593, (2-NA)--G--G--R--I--D--Cit--I--NH2] ({Acetyl(2-naphthyl)}-GGRID[Cit]I-NH2)
15.0 nM	–	CC[C@H](C)[C@H](NC(=O)[C@H](CCCNC(=N)N)NC(=O)CNC(=O)CNC(=O)Cc1ccc2ccccc2c1)C(=O)N[C@@H](CC(=O)O)C(=O)N[C@@H](CCCNC(=N)N)C(=O)N[C@@H](CC(C)(C)C)C(N)=O [AP594, (2-NA)--G--G--R--I--D--R--tBuA--NH2] ({Acetyl(2-naphthyl)}-GGRIDR[tBuAla]-NH2)
100.0 nM	–	CC[C@H](C)[C@H](NC(=O)[C@H](CCCNC(=N)N)NC(=O)CNC(=O)CNC(=O)Cc1ccc2ccccc2c1)C(=O)N[C@@H](CC(=O)O)C(=O)N[C@@H](CCCNC(=N)N)C(=O)N[C@H](C(N)=O)c1ccccc1 [AP595, (2-NA)--G--G-- R--I--D--R--Phg--NH2] ({Acetyl(2-naphthyl)}-GGRIDR[Phg]-NH2)
87.3 nM	–	CCNC(=O)[C@H]([C@@H](C)CC)N(C)C(=O)[C@H](CCCNC(=N)N)NC(=O)[C@H](CC(=O)O)NC(=O)[C@@H](NC(=O)[C@H](CCCNC(=N)N)NC(=O)CNC(=O)CNC(=O)Cc1ccc2ccccc2c1)[C@@H](C)CC [AP596, (2-NA)--G--G--R--I--D--R--NMeIle--NH(ethyl)] ({Acetyl(2-naphthyl)}-GGRIDR[NMeI]-NHEt)

The next lines start with the compound.

SMILES	Ki(app)	receptor binding / activity as judged by Ki, in words
CC[C@H](C)[C@H](NC(=O)[C@H](CCCNC(=N)N)NC(=O)[C@H](CC(=O)O)NC(=O)[C@@H](NC(=O)[C@H](CCCNC(=N)N)NC(=O)C1CCN(C(=O)Cc2ccc3ccccc3c2)CC1)[C@@H](C)CC)C(N)=O [AP538] ({Acetyl(2-naphthyl)-Inp}-RIDRI-NH2)	9.9 nM	–
CC[C@H](C)[C@H](NC(=O)[C@H](CCCNC(=N)N)NC(=O)[C@H](CC(=O)O)NC(=O)[C@@H](NC(=O)[C@H](CCCNC(=N)N)NC(=O)C1CCN(C(=O)COc2ccc3ccccc3c2)CC1)[C@@H](C)CC)C(N)=O [AP539] ({Acetyl(2-naphthyloxy)-Inp}-RIDRI-NH2)	9.1 nM	–
CCC(C)CNC(=O)[C@H](CCCNC(=N)N)NC(=O)[C@H](CC(=O)O)NC(=O)[C@@H](NC(=O)[C@H](CCCNC(=N)N)NC(=O)C1CCN(C(=O)Cc2ccc3ccccc3c2)CC1)[C@@H](C)CC (some centres unmarked) [AP557] ({Acetyl(2-naphthyl)-Inp}-RIDR-X3)	41.7 nM	–
CC[C@H](C)[C@H](NC(=O)[C@H](CCCNC(=N)N)NC(=O)[C@H](CC(=O)O)NC(=O)[C@@H](NC(=O)[C@H](CCCNC(=N)N)NC(=O)c1ccc(NC(=O)Cc2ccc3ccccc3c2)cc1)[C@@H](C)CC)C(N)=O [AP560] ({Acetyl(2-naphthyl)-4Abz}-RIDRI-NH2)	68.8 nM	–
CC[C@H](C)[C@H](NC(=O)[C@H](CCCNC(=N)N)NC(=O)[C@H](CC(=O)O)NC(=O)[C@@H](NC(=O)[C@H](CCCNC(=N)N)NC(=O)C1CCN(C(=O)c2ccc3ccccc3c2)CC1)[C@@H](C)CC)C(N)=O [AP562] ({2Naphthoyl-Inp}-RIDRI-NH2)	22.4 nM	–
CC[C@H](C)[C@H](NC(=O)[C@H](CCCNC(=N)N)NC(=O)[C@H](CC(=O)O)NC(=O)[C@@H](NC(=O)[C@H](CCCNC(=N)N)NC(=O)Cc1ccc(NC(=O)Cc2ccc3ccccc3c2)cc1)[C@@H](C)CC)C(N)=O [AP564] ({Acetyl(2-naphthyl)}-[X1]RIDRI-NH2)	10.1 nM	–
CC[C@H](C)[C@H](NC(=O)[C@H](CCCNC(=N)N)NC(=O)[C@H](CC(=O)O)NC(=O)[C@@H](NC(=O)[C@H](CCCNC(=N)N)NC(=O)C1CCN(CC(=O)c2ccc3ccccc3c2)CC1)[C@@H](C)CC)C(N)=O [AP574] (X7-RIDRI-NH2)	26.5 nM	–
CC[C@H](C)[C@H](NC(=O)[C@H](CCCNC(=N)N)NC(=O)[C@H](CC(=O)O)NC(=O)[C@@H](NC(=O)[C@H](CCCNC(=N)N)NC(=O)CNC(=O)CNC(=O)Cc1ccc2ccccc2c1)c1ccccc1)C(N)=O [AP575, (2-NA)--G--G--R--Phg--D--R--I--NH2] ({Acetyl(2-naphthyl)}-GGR[Phg]DRI-NH2)	194.0 nM	very low, if any, activity
CC[C@H](C)[C@H](NC(=O)[C@H](CCCNC(=N)N)NC(=O)[C@H](CC(=O)O)NC(=O)[C@@H](NC(=O)[C@H](CCCNC(=N)N)NC(=O)CCCNC(=O)COc1ccc2ccccc2c1)[C@@H](C)CC)C(=O)NCC(=O)N[C@@H](C)C(N)=O [AP576, (2-NOA)--NH(CH2)3 CO--R--I--D--R--I--G--A--NH2] ({Acetyl(2-naphthyloxy)-GABA}-RIDRIGA-NH2)	16.0 nM	–
CC[C@H](C)[C@H](NC(=O)[C@H](CCCNC(=N)N)NC(=O)[C@H](CC(=O)O)NC(=O)[C@@H](NC(=O)[C@H](CCCNC(=N)N)NC(=O)CNC(=O)CCCc1c[nH]c2ccccc12)[C@@H](C)CC)C(=O)NCC(=O)N[C@@H](C)C(N)=O [AP597, (3-IB)--G--R--I--D--R--I--G--A--NH2] ({Butyryl(4-indol-3-yl)}-GRIDRIGA-NH2)	9.3 nM	–
CC[C@H](C)[C@H](NC(=O)[C@H](CCCNC(=N)N)NC(=O)[C@H](CC(=O)O)NC[C@@H](NC(=O)[C@H](CCCNC(=N)N)NC(=O)Cc1ccc(NC(=O)Cc2ccc3ccccc3c2)cc1)[C@@H](C)CC)C(N)=O [AP701]	60.3 nM	–
CC[C@H](C)[C@H](NC(=O)[C@H](CCCNC(=N)N)NC(=O)[C@H](CC(=O)O)NC(=O)[C@@H](NC(=O)[C@H](CCCNC(=N)N)NCC1CCN(C(=O)Cc2ccc3ccccc3c2)CC1)[C@@H](C)CC)C(N)=O [AP704] (H-[X8](Acetyl(2-naphthyl))IDRI-NH2)	17.0 nM	–
CC[C@H](C)[C@H](NC(=O)[C@H](CCCNC(=N)N)NC(=O)[C@H](CC(=O)O)NC(=O)[C@@H](NC(=O)[C@H](CCCNC(=N)N)NC(=O)CCCCCCCNC(=O)COc1ccc2ccccc2c1)[C@@H](C)CC)C(N)=O [AP789, (2-NOA)--NH--(CH2)7 --CO--R--I--D--R--I--NH2] ({Acetyl(2-naphthyloxy)-Aoc}-RIDRI-NH2)	380 nM	–
CC[C@H](C)[C@H](NC(=O)[C@H](CCCNC(=N)N)NC(=O)[C@H](CC(=O)O)NC(=O)[C@@H](NC(=O)[C@H](CCCNC(=N)N)NC(=O)Cc1ccc(NC(=O)c2ccc3ccccc3c2)cc1)[C@@H](C)CC)C(N)=O [AP790] (2Naphthoyl-[X1]RIDRI-NH2)	5.2 nM	–
CC[C@H](C)[C@H](NC(=O)[C@H](CCCNC(=N)N)NC(=O)[C@H](CC(=O)O)NC(=O)[C@@H](NC(=O)[C@H](CCCNC(=N)N)NC(=O)c1ccc(NC(=O)COc2ccc3ccccc3c2)cc1)[C@@H](C)CC)C(N)=O [AP791] ({Acetyl(2-naphthyloxy)-4Abz}-RIDRI-NH2)	31.1 nM	–
CC[C@H](C)[C@H](NC(=O)[C@H](CCCNC(=N)N)NC(=O)[C@H](CC(=O)O)NC(=O)[C@@H](NC(=O)[C@H](CCCNC(=N)N)NC(=O)Cc1ccc(NC(=O)COc2ccc3ccccc3c2)cc1)[C@@H](C)CC)C(N)=O [AP792] ({Acetyl(2-naphthyloxy)}-[X1]RIDRI-NH2)	6.3 nM	–
